The text below walks through data of ChEMBL document CHEMBL5380875, “Discovery of a Potent and Oral Available Complex I OXPHOS Inhibitor That Abrogates Tumor Growth and Circumvents MEKi Resistance” (J Med Chem, 2023).

Calls of active or inactive are those of the source. No cut-off for these calls is given here.

The term clearance denotes a measure of how efficiently the substance is removed, as volume per time. The IC50 is the point on the concentration scale where inhibition reaches its midpoint. In general, inhibition refers to the change of the read-out against control, counted positive when it falls. What is called AUC(0-t) is the area under the concentration-time curve up to a stated or last time point. A lower AUC(0-t) goes with low exposure.

Data set [1] can be described thus: Apparent volume of distribution in ICR mouse at 1 mg/kg, iv measured for 24 hrs by LC-MS/MS analysis. In kind it is ADME, organism-based. The conditions noted are these: in vivo, read-out: Vz.
Data set [2] in a line: Clearance in ICR mouse at 1 mg/kg, iv measured for 24 hrs by LC-MS/MS analysis. In kind it is ADME, organism-based. Particulars: in vivo.
A further data set has as its target Cytochrome P450 2C19 (Homo sapiens, UniProt P33261). The data set is described as follows: Inhibition of CYP2C19 in human liver microsomes. It is filed as ADME, Microsome. A general note: Liver microsomes are vesicles of endoplasmic reticulum, rich in cytochrome P450 enzymes.
Data set [3] concerns NCI-H460. The data set is described as follows: Antitumor activity against human NCI-H460 cells with high-OXPHOS xenografted in mouse assessed as reduction in trametinib-induced oxidative phosphorylation at 30 mg/kg, po bid administered for 18 days. The conditions noted are these: time 18.0 day. In kind it is functional, organism-based.
The test system of data set [4] is NCI-H441. The data set is described as follows: Potentiation of trametinib-induced cytotoxicity against human NCI-H441 cells with high-OXPHOS harboring KRAS G12V mutant assessed as reduction in cell viability at 10 to 20 uM incubated for 72 hrs by CellTiter 96 cell proliferation assay. In kind it is functional, cell-based. The conditions noted are these: dose 10-20 µM.

Data set [5] relates to NCI-H460. The data set can be described thus: Inhibition of mitochondrial complex IV in human NCI-H460 cells at 1 uM incubated for 12 hrs by seahorse XF96 metabolic flux analyzer relative to control. In kind it is cell-based.
Data set [6] concerns A549. The data set can be described thus: Induction of apoptosis in human Trametinib-resistant A549 cells with high-OXPHOS harboring KRAS G12S mutant assessed as early apoptotic cells at 20 nM incubated for 72 hrs by Annexin V-FITC/propidium iodide staining based flow cytometry analysis (reference value: 4.31%). In kind it is functional. For orientation: A flow cytometer gives signals particle by particle.

The test system of another data set is NCI-H358. The data set can be described thus: Antiproliferative activity against human NCI-H358 cells with low-OXPHOS assessed as reduction in cell viability incubated for 5 days by CellTiter 96 cell proliferation assay. It is filed as functional, cell-based. Particulars: NCI-H358, 120 h.
Data set [7] has as its system A549. The data set can be described thus: Induction of apoptosis in human Trametinib-resistant A549 cells with high-OXPHOS harboring KRAS G12S mutant assessed as early apoptotic cells at 20 nM incubated for 72 hrs in presence of trametinib by Annexin V-FITC/propidium iodide staining based flow cytometry analysis (reference value: 4.31%). In kind it is functional.
A short description of data set [8]: AUC (0 to 24 hrs) in ICR mouse at 10 mg/kg, po measured for 24 hrs by LC-MS/MS analysis. In kind it is ADME, organism-based. The arrangement: time 24 hrs, dose 10 mg/kg, route po. The conditions noted are these: in vivo.
Data set [9] concerns NCI-H441. The data set is described as follows: Inhibition of mitochondrial respiration in human NCI-H441 cells with high-OXPHOS assessed as reduction in maximal oxygen consumption rate incubated for 12 hrs by seahorse XF96 flux analyzer. It is filed as functional, cell-based. Particulars: dose 50-200 nM.
Data set [10] is described as follows: Toxicity in mouse xenografted with human NCI-H460 cells with high-OXPHOS assessed as reduction in serum AST level at 30 mg/kg, po bid administered for 18 days. It is filed as organism-based. The conditions noted are these: in vivo, 432 h, time 18 day. For orientation: A xenograft is tissue or cells of one species grown in another, often human tumour cells in immunodeficient mice.

Data set [11] concerns NCI-H441. The data set is described as follows: Induction of apoptosis in human NCI-H441 cells with high-OXPHOS assessed as late apoptotic cells at 30 nM incubated for 48 hrs by Annexin V-FITC/propidium iodide staining based flow cytometry analysis (reference value: 9.27%). It is filed as functional.
Data set [12] in a line: Cytotoxicity against human HPNE cells assessed as reduction in cell viability incubated for 5 days by CellTiter 96 cell proliferation assay. In kind it is toxicity, cell-based.
The target in another data set is Cytochrome P450 2C9 (Homo sapiens, UniProt P11712). The data set is described as follows: Inhibition of CYP2C9 in human liver microsomes. In kind it is ADME, Microsome.
Cytochrome P450 2C9, sequence (P11712 whole entry): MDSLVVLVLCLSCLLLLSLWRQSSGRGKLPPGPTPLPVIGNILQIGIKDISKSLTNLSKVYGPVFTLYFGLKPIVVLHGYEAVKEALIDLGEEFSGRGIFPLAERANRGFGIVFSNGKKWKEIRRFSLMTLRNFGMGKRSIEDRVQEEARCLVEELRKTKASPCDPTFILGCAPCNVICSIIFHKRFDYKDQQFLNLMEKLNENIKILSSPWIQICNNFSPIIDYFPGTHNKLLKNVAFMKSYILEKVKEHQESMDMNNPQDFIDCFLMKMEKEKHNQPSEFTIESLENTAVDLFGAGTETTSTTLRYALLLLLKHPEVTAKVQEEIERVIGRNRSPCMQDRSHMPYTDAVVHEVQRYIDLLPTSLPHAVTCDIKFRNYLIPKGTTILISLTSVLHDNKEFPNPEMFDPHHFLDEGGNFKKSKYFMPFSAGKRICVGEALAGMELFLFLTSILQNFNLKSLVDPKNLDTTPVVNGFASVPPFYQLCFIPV

Cytochrome P450 2C19, sequence (P33261 whole entry): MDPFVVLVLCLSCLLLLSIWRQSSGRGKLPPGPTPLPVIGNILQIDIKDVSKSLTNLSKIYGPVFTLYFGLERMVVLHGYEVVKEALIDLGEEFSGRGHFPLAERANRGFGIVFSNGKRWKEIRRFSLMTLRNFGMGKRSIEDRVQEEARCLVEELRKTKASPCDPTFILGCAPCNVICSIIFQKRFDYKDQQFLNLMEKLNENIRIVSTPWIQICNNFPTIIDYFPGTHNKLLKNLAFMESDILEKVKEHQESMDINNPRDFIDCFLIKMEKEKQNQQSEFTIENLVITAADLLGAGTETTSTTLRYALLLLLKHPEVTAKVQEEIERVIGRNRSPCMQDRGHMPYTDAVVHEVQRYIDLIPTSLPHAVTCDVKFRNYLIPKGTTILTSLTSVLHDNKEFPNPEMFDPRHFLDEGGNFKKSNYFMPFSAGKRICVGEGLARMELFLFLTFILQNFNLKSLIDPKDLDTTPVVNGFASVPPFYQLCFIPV

Consider `Cc1c(C(=O)N2CCN(Cc3ccc(OCC(F)(F)F)cc3)CC2)nnn1Cc1ccc(C(=O)Nc2ccc(C(F)(F)F)cc2)nc1`, for which the Vd in [1] is 9.34 L/kg. In data set [2], this compound had a clearance of 46.6 mL/min/kg. For the same compound, the IC50 was more than 50 µM against Cytochrome P450 2C19, more than 1000 nM with NCI-H358 and 14.6 µM against Cytochrome P450 2C9. Also, the outcome in the data set on NCI-H460 [3] and in the data set with NCI-H441 [4] was Active. In addition, the results for the inhibition with NCI-H460 [5] and in the data set with NCI-H441 [9] were 10.4% and “Dose-Dependent Effect”, respectively. Further, the Activity with A549 [6] is 8.57%; in the data set on A549 [7] it was 31%; in [10], “Non-Toxic”; with NCI-H441 [11], 30.9%. Besides, in [8], the AUC(0-t) at 24 h stood at 2170 ng·h/mL. The IC50 at 5 days in data set [12] is more than 10 µM.
